Test results as given in patent US9844564B2 (Industrial Cooperation Foundation Chonbuk National …, priority 2012, dated 2017).

Assays:
[1] = system: DOX-induced cardio and hepatotoxicities; assay: Doxorubicin (DOX)-induced acute heart failure animal model; type: in vivo, mice
Experimental: This animal model is associated with an increase in oxidative stress and causes significant hepatopathy after DOX injection.
Specifically, 20-week-old male mice were injected intraperitoneally once with 20 mg/kg of DOX. […] Mortality was observed up to 10 days after DOX administration. After 10 days, the mice were sacrificed and the expressions of enzymes in the heart and liver tissues were analyzed. The cardiac function of the mice was also measured by echocardiogram.

RAW 264.7 cells = assay: NO production in LPS-treated cells (Griess reaction); type: cell-based; conditions: LPS-treated RAW 264.7, Griess
Experimental: The concentration of NO was determined using a colorimetric assay based on the Griess reaction. 50 μL of cell culture medium was collected and given 100 μL of Griess reagent (6 mg/mL) at room temperature for 10 min, and then the NO concentration was determined by measuring the absorbance at 540 nm using a microplate reader (Synergy MX, BioTek Instruments, US). The NO standard curve was constructed using known concentrations of sodium nitrite.

[2] = H2O2 scavenging by PVAX or MnP-PVAX microparticles (amplex red assay); conditions: 10 μM H2O2, 1 mg microparticles, 37° C., 6 or 24 h
Experimental: After short centrifugation, the concentration of H2O2 in the supernatant was measured using an amplex red assay (Invitrogen, US).

[3] = system: OVA-induced allergic airway inflammation; assay: Mouse model of ovalbumin (OVA)-induced allergic asthma; type: in vivo, BALB/c mice; conditions: OVA-sensitized and challenged mice, ELISA
Experimental: On days 15, 16 and 17, mice were challenged intranasally with 50 μg of OVA. […] A sham group was given PBS only. On day 19, the mice were sacrificed and lung lobes were isolated along with the trachea. Lungs were also lavaged with 500 μL of PBS introduced through the trachea. BALF (bronchiolavage fluid) was centrifuged at 300×g for 5 min, and cells were rinsed and resuspended with PBS. Aliquots of the cell suspension were applied to slides by Cytospin (Hanil, Korea) at 500×g for 5 minutes allowed to air dry and stained with modified Wright's stain (Hema-3, Fisher Scientific). The numbers of macrophages, eosinophils, neutrophils and lymphocytes were determined morphologically and a minimum of 200 cells per slide were counted under the microscope (Eclipse, Nikon, Japan). The level of TNF-α in the supernatant of BALF was measured with an ELISA kit as advised by manufacturer (eBioScience, San Diego, Calif.). Lungs were perfused with PBS, removed and fixed in 4% buffered formalin. Lungs were embedded in paraffin and serial paraffin sections (3 μm) were cut. The sections were stained with hematoxylin (Yeongdong Pharma, Korea) and eosin (Showa Chemicals, Japan). Results are illustrated in FIGS. 49-51.

[4] = system: RAW 264.7 cells activated with PMA; assay: ROS production in PMA-activated cells (DCFH-DA, flow cytometry); type: cell-based; conditions: PMA-stimulated; VA 0.5 mM, PVAX 100 μg
Experimental: The cells were treated with […] to stimulate the production of reactive oxygen species in the cells. After 4 hours, the cells were treated with DCFH-DA (dichlorofluorescin-diacetate), after which DCF ([…]) (a marker of intracellular oxidative stress) was analyzed using a flow cytometer (Becton Dickinson, US).

[5] = Particle stability versus loading ratio; type: physicochemical
From the text: However, PVAX allowed greater ratio of VA-CHDM (up to 60%), providing greater therapeutic effects without significant compromise of the stability.

[6] = echocardiogram, DOX-treated mice

COc1cccc2c1C(=O)c1c(O)c3c(c(O)c1C2=O)C[C@@](O)(C(=O)CO)C[C@@H]3O[C@H]1C[C@H](N)[C@H](O)[C@H](C)O1 [DOX, doxorubicin]
survival ([1]; 10 days after DOX, p<0.05): 35% | ejection fraction (EF), mean [1, 6]: 25.54 | fractional shortening (FS), mean [1, 6]: 50.41 | mortality rate ([1]; observation up to 10 days after DOX 20 mg/kg i.p., PVAX daily): 65%

C1=Cc2cc3ccc(cc4nc(cc5ccc(cc1n2)[nH]5)C=C4)[nH]3.[Mn] [MnP, manganese porphyrin]
inhibitory effects on NO production (RAW 264.7 cells): inhibitory effects on NO production, not significant | H2O2 scavenging activity [2]: H2O2 scavenging activity in a time-dependent manner

COc1cc(CO)ccc1O [VA, 4-(hydroxymethyl)-2-methoxyphenol]
inhibitory effects on NO production (RAW 264.7 cells): inhibitory effects on NO production, not significant | expression of TNF-α in BALF [3]: suppressed the expression of TNF-α | intracellular ROS generation (DCF fluorescence) [4]: only slightly suppressed ROS generation

poly(p-hydroxy-benzyl alcohol (HBA)-oxalic acid) copolymer [HPOX]
particle stability / feasibility of loading [5]: not feasible due to instability of the particles
